{"source": "patent US20210330606A1", "about": "“GLUCOSE CONSUMPTION ACCELERATOR AND GLYCOLYSIS ACCELERATOR” (SHINKO SANGYO Co., Ltd., priority 2018, published 2021)", "key": {"[1]": {"tested_on": "Rat-derived fibroblasts (Py-3Y1-S2, subculture strain)", "experiment": "Glucose consumption of rat-derived fibroblasts (relative value, control = 100)", "assay_type": "cell-based", "description": "As drugs, 2-amino-1-cyclohexylethanol (Matrix Biochemicals), 2-aminoethanol (Tokyo Chemical Industry Co., Ltd.), 1-amino-2-propanol (Wako Pure Chemical Industries, Ltd.), 2-amino-1-phenylethanol (Tokyo Chemical Industry Co., Ltd.), 1, 3-bis[tris(hydroxymethyl)-methylamino]propane (Tokyo Chemical Industry Co., Ltd.), N-cyclohexylethanolamine (Tokyo Chemical Industry Co., Ltd.), diethanolamine (Wako Pure Chemical Industries, Ltd.), diethylamine (Wako Pure Chemical Industries, Ltd.), dipropylamine (Tokyo Chemical Industry Co., Ltd.), HEPES sodium salt (MP Biomedicals), metoprolol tartrate (Tokyo Chemical Industry Co., Ltd.), morpholine (Wako Pure Chemical Co., Ltd.), octopamine (MP Biomedicals), propylamine (Tokyo Chemical Industry Co., Ltd.), triethylamine (Wako Pure Chemical Co., Ltd.), timolol maleate (Wako Pure Chemical Industries, Ltd.) and tris(hydroxymethyl)aminomethane (Wako Pure Chemical Industries, Ltd.) were used. Each drug was dissolved in distilled water to prepare a sample.\nIn the culture, DMEM (Nissui Pharmaceutical Co., Ltd.) was used as a culture medium. […] As a control of the drug, the culture was performed in the same manner except that distilled water to which the drug was not added was added to the culture solution instead of the sample.\nAfter the addition of the drug, the glucose concentration of each of the culture solutions was measured immediately after the start of the culture and after the completion of the culture. The glucose concentration was measured using a glucose assay kit (Waco). Then, the glucose concentration after the completion of the culture was divided by the glucose concentration immediately after the start of the culture (5.6 mmol per liter) to calculate the glucose consumption.\nThe fibroblasts were cultured. […] Streptozotocin, alloxan, and nicotinamide are drugs all known to produce symptoms of diabetes when administered to the body.\nNext, samples of streptozotocin, alloxan, and nicotinamide plus 2-amino-1-phenylethanol (2-A-1-P) were prepared in the same manner. The concentration of 2-A-1-P was 1 mg/ml. The relative value of the glucose consumption was calculated in the same manner.\nThe fibroblasts were cultured.\nThe concentration of 2-A-1-P was 0.5 mg/ml. The relative value of the glucose consumption was calculated in the same manner."}, "[2]": {"tested_on": "Male mice of ICR strain", "experiment": "Blood glucose level of mice after oral glucose load with the drug", "assay_type": "in vivo, mouse", "conditions": "drug 50 mg/kg + glucose 2000 mg/kg oral", "description": "As a drug, 2-amino-1-phenylethanol was used. First, glucose (KANTO CHEMICAL CO., INC.) was dissolved in water for injection so as to achieve a concentration of 200 mg/ml, thereby preparing a glucose solution. Next, the drug was dissolved in the water for injection, and then the glucose solution was added thereto so that the drug and glucose had final concentrations of 2.5 mg/ml and 100 mg/ml, respectively, thereby preparing a sample. As a control of the drug, the culture was performed in the same manner except that 100 mg/ml glucose solution to which the drug was not added was used instead of the sample.\nMale mice of 6-week-old ICR strain were purchased from Japan SLC, Inc., and preliminary rearing was carried out for about 1 week to check there was no abnormality in performance status. The conditions for the preliminary rearing were as follows: 4 mice each were housed in a polycarbonate cage, room temperature was 23° C.±3° C., and illumination time was 12 hours/day. Diets (mice and rat chow, product of Nosan Corporation) and drinking water (tap water) were freely ingested.\nAfter the preliminary rearing, the mice were fasted for about 21 hours, and then body weight and blood glucose levels were measured. The mice were divided into the total of two groups, namely, a test group and a control group to ensure that there was no variation in blood glucose levels between the groups. The number of animals in each group was eight.\nAfter the grouping, mice of the test group and the control group were orally administered a single dose of the sample and the control, respectively, using a gastric sonde to a dose volume of 20 ml/kg. That is, the test group mice were administered the drug and glucose at doses of 50 mg/kg and 2000 mg/kg, respectively, and the control group mice were administered glucose at a dose of 2000 mg/kg. With the time of the administration being regarded as 0 minutes, the blood glucose level was measured at 30 minutes, 60 minutes, 90 minutes, and 120 minutes. The blood glucose level was measured by using an ACCU-CHEK Aviva (Roche Diagnostics K.K.), blood was collected by inserting an injection needle into the tip of the tail, and the blood glucose level was measured for the collected blood.\nAs to the blood glucose levels at 0 minutes, 30 minutes, 60 minutes, 90 minutes and 120 minutes, the test group and the control group were compared by t-test. The significance levels were 5% and 1%.\nIn addition, the area under the curves (AUCs) were calculated for the measured blood glucose levels. The AUC was calculated by calculating the area surrounded by the measurement curve and a straight line parallel to the time axis and passing through the measured value at the time of administration in the graph with the measured value on the vertical axis and the time on the horizontal axis. Then, the test group and the control group were compared by t-test for AUC in the same manner as the comparison for the blood glucose level."}, "[3]": {"tested_on": "Py-3Y1-S2, TE-13, VERO and HepG2 cells", "experiment": "Lactate concentration after 2 to 3 days culture, lactate metabolism, mean over four cell types (Example 9)", "assay_type": "cell-based, rat, human, African green monkey", "conditions": "drug 0.5 mg/ml, 2 to 3 days (48 to 72 hours) culture, mean of four experiments", "description": "After the addition of the drug, the culture solution was diluted so that the weight ratio of the culture solution to distilled water was 1:19, and the lactate concentration of the diluted culture solution was measured. The lactate concentration was measured using a lactate assay kit (product name: Lactate Assay Kit-WST, product of Dojindo Laboratories).\nFirst, samples of 2-amino-1-cyclohexylethanol (2-amino-1-cyclohexyl EOH) and 2-amino-1-phenylethanol (2-amino-1-phenyl EOH) were prepared in the same manner as in Example 1. Four types of cells were used as in Example 8, and each of the cells was cultured under the same conditions as in Example 1. […] Thereafter, the culture time was lengthened to 2 to 3 days (48 to 72 hours) compared to Example 8. As a control 1, the culture was performed in the same manner except that distilled water to which the drug was not added was added to the culture solution instead of the sample. As a control 2, the culture was performed in the same manner as the […] except that a sample of biguanide prepared in the same manner as in Example 1 was added to the culture solution instead of the sample. Then, the lactate concentration in each sample was measured in the same manner as in Example 6. Each of the four cells was used for a total of four experiments."}}, "note": "Values joined by “and” are separate entries in the source; they are usually repeats but may differ in a detail not shown here. Equal entries are not always repeated.", "data": [{"smiles": "NCC(O)c1ccccc1", "note": "(stereo not shown) [2-amino-1-phenylethanol]", "values": [{"measurement": "relative value of glucose consumption", "setting": "[1]; Example 2, fibroblasts, drug 0.1 mg/ml, control = 100", "result": "about 130"}, {"measurement": "relative value of glucose consumption", "setting": "[1]; Example 2, fibroblasts, drug 0.25 mg/ml, control = 100", "result": "about 140"}, {"measurement": "relative value of glucose consumption", "setting": "[1]; Example 2, fibroblasts, drug 0.5 mg/ml, control = 100", "result": "about 160"}, {"measurement": "relative value of glucose consumption", "setting": "[1]; Example 3, 2-A-1-P 1 mg/ml in addition to alloxan 1 mg/ml", "result": "≥ 100"}, {"measurement": "relative value of glucose consumption", "setting": "[1]; Example 3, 2-A-1-P 1 mg/ml in addition to nicotinamide 1 mg/ml", "result": "≥ 100"}, {"measurement": "relative value of glucose consumption", "setting": "[1]; Example 3, 2-A-1-P 1 mg/ml in addition to streptozotocin 1 mg/ml", "result": "≥ 100"}, {"measurement": "relative value of glucose consumption", "setting": "[1]; Example 4, 2-A-1-P 0.5 mg/ml in addition to V2O5", "result": "about 140"}, {"measurement": "relative value of glucose consumption", "setting": "[1]; Example 4, 2-A-1-P 0.5 mg/ml in addition to concanavalin A 100 μg/ml", "result": "about 150"}, {"measurement": "relative value of glucose consumption", "setting": "[1]; Example 4, 2-A-1-P 0.5 mg/ml in addition to vanadium", "result": "about 145"}, {"measurement": "relative value of glucose consumption", "setting": "[1]; fibroblasts, drug 0.5 mg/ml, 12 to 24 hours, control = 100 (FIG. 1A, 2A)", "result": "significantly increased glucose consumption"}, {"measurement": "relative value of glucose consumption", "setting": "[1]; fibroblasts, drug 1 mg/ml, 12 to 24 hours, control = 100 (FIG. 1B, 2B)", "result": "significantly increased glucose consumption"}, {"measurement": "AUC Calculated value (blood glucose)", "setting": "[2]; individual mice, 0-120 minutes above value at administration", "result": "173 mg/dL·h and 142 mg/dL·h (2×) and 177 mg/dL·h and 171 mg/dL·h and 132 mg/dL·h and 127 mg/dL·h and 258 mg/dL·h"}, {"measurement": "blood glucose level", "setting": "[2]; individual mice, 0 minutes (time of administration)", "result": "46 mg/dL and 53 mg/dL and 61 mg/dL and 70 mg/dL and 54 mg/dL and 60 mg/dL and 86 mg/dL and 59 mg/dL"}, {"measurement": "blood glucose level", "setting": "[2]; individual mice, 30 minutes post-administration", "result": "177 mg/dL and 194 mg/dL (2×) and 222 mg/dL and 165 mg/dL and 202 mg/dL and 219 mg/dL and 256 mg/dL"}, {"measurement": "blood glucose level", "setting": "[2]; individual mice, 60 minutes post-administration", "result": "151 mg/dL and 136 mg/dL (2×) and 180 mg/dL and 171 mg/dL and 141 mg/dL and 160 mg/dL and 223 mg/dL"}, {"measurement": "blood glucose level", "setting": "[2]; individual mice, 90 minutes post-administration", "result": "121 mg/dL and 93 mg/dL and 138 mg/dL (2×) and 117 mg/dL and 91 mg/dL and 120 mg/dL and 176 mg/dL"}, {"measurement": "blood glucose level", "setting": "[2]; individual mice, 120 minutes post-administration", "result": "116 mg/dL and 91 mg/dL and 112 mg/dL and 113 mg/dL and 108 mg/dL and 79 mg/dL and 111 mg/dL and 134 mg/dL"}, {"measurement": "AUC Mean value ± Standard error (blood glucose)", "setting": "[2]; test group No. 1 to No. 8", "result": "165 ± 15", "unit": "mg·h/dL"}, {"measurement": "lactate concentration in the culture solution compared to control 1", "setting": "[3]", "result": "equivalent to that of control 1"}]}]}
